Laboratory results taken from patent US20260345584A1, “METHODS AND PHARMACEUTICAL COMPOSITIONS FOR TREATING CHEMOTHERAPY-INDUCED PERIPHERAL NEUROPATHY WITH EG5 INHIBITORS” (UNIVERSITY OF MIAMI, priority 2023, published 2026).

How the values were obtained:
[1] = tested on: epidermal keratinocytes (detyrosinated microtubules); experiment: Hind paw pad skin GluTub/DAPI histology in mice; format: in vivo, mouse; settings: 24 mg/kg paclitaxel i.p.
Protocol: Paws and back skin were collected at predetermined time points, placed in 10% formalin, and stored overnight at 4 °C. Samples were embedded in paraffin and sectioned at 7 μm, deparaffinized, washed with PBS, and incubated at room temperature for 5 min in 0.1% Triton X-100 in PBS and then blocked for 30 min (5% BSA). Sections were incubated with primary antibody diluted in blocking solution, overnight at 4 °C in a humidity chamber. Following PBS washes, sections were incubated for 1 h at room temperature with a secondary antibody. Tissues were mounted and assessed for staining. Antibodies used were against detyrosinated tubulin Millipore AB3201, p-KIF11 Invitrogen PA5-38647, alpha-tubulin Proteintech 66031-1-Ig, mouse Alexa Fluor 488 Invitrogen A21202, and rabbit Alexa flour 546 Invitrogen A10040. DAPI was used for nuclei counterstaining.
Immunofluorescence staining was performed with a widefield microscopy using a Plan-Apochromatix 100× objective lens (oil immersion, numerical aperture [NA]1.4), 20× and 10× objective lens on inverted Zeiss Axio Observer Z1 using AxioVision 4.8 software. Images were acquired using a monochrome Zeiss Axio Cam MRm CCD camera. Images were processed with the NIH Image J software.
These mice were then sacrificed and the skin of the hind paw pad was fixed in 4% paraformaldehyde, followed by sectioning and staining with 1) anti-GluTub (to detect detyrosinated microtubules) and 2) DAPI to detect nuclei.

cutaneous sensory axons = experiment: Axon branch number in caudal fin (acetylated tubulin staining); format: in vivo, zebrafish; settings: for axon branch number: 96 hr; for axon branches in the caudal fin: 96 hr paclitaxel
Protocol: The stock solution was divided into 20-30 μl aliquots and stored at −20 °C until use (maximal 6 months). Immediately prior to use, paclitaxel was diluted in Ringer's solution and added to dechorionated larval zebrafish. The larval fish were placed individually or in small groups into wells of a 12-well plate containing the treatment solutions. The control group was 0.05% DMSO. Plates were incubated at 28.5 °C and protected from light. Treatment lengths are indicated in the Drawings, Description of the Drawings, and Examples where appropriate. […] EMD534085, Eg5 inhibitor (MedChemExpress, Cat. No. HY-15000) was diluted in 100% DMSO to make a 10 mM stock solution and stored at −20 °C. […] The solutions were exchanged every 48 hr.
Larval fish were transferred into […] glass vials and fixed in 4% paraformaldehyde (PFA)/1× Phosphate-buffered saline (PBS) for 1.5 hr at room temperature, with gentle rocking. Following a 5-minute incubation in 1×PBS+0.1% Tween-20 (PBST), zebrafish were permeabilized in 1×PBS+0.1% Triton X-100 for 10-30 min. Larval fish were transferred into 2 ml reaction tubes and incubated in blocking buffer (1×PBST+5% BSA) for 30 min at room temperature, with rocking. Larval fish were further incubated overnight in antibody solution (Millipore Sigma, Cat. No. AB3201, 1:300 rabbit anti-GluTub; Sigma, Cat No. T6793, 1:500 mouse anti-acetylated tubulin) in blocking buffer at 4 °C, on a rotator. The next morning, larval fish were transferred into 6-well plates and washed 4×15 min in 1×PBST at room temperature, with rocking. This was followed by incubation in secondary antibody (goat anti-rabbit Cy5, Abcam, Cat. No. ab97077; goat anti-mouse Cy3, Abcam, Cat. No. ab97035) and 1:10,000 Hoechst 33342 (ThermoFisher Scientific, Cat. No. 62249, 20 mM solution) in blocking buffer for 1 hr at room temperature, with rocking. Fish were covered to avoid bleaching. Fish were washed for 4×15 min in 1×PBST at room temperature, with rocking, and immediately mounted for imaging on glass bottom petri dishes (Spectrum Laboratory Products, Cat. No. 750-10403-UE) using 1% agarose (Thermo Fisher Scientific, Cat. No. 16520050). A 1:200 dilution was used for mouse alpha-tubulin antibody (Proteintech, Cat. No. 66031-1) and a 1:1,000 dilution of donkey anti-mouse IgG Alexa488 (ThermoFisher Scientific, Cat. No. A-21202) for secondary detection. For Nox1 immunostaining, a 1:300 dilution of primary antibody (Anti-NOX1 Rabbit Polyclonal Antibody, Avantar, Cat. No. 102164-796) and a 1:1,000 dilution of secondary goat anti-rabbit Cy2 (Abcam, Cat. No. ab6940) antibody was used. Eg5 antibody (Abcam, Cat. No. 61199) was used at a 1:100 and secondary goat anti-rabbit Cy2 (Abcam, Cat. No. ab6940) at 1:1,000 dilution.
Axon branch number quantifications were performed by drawing a 50 μm line across the dorsal, medial, and ventral caudal fin edge region at a distance of 100 μm parallel to the fin edge (which was determined to be the most reliable region to quantify distal branch numbers). Axons traversing this line were counted and averaged per treatment group. Axonal fluorescence measurements were taken using the Imaris Spots function by manually placing spots along the axon and using the fluorescence intensity profile measurements MatLab tool.
Stretching was performed after 96 hr treatment, followed by 2 hr post-stretch fixation, and staining for detection of acetylated tubulin in axons.
To further validate Eg5 as the pharmacological target of EMD534085 in axon regeneration, zebrafish injected with kif11 CRISPR oligo were also analyzed.

[2] = tested on: microtubules in keratinocytes; experiment: EB3-GFP microtubule growth dynamics in keratinocytes; format: in vivo, zebrafish
Protocol: Fish were anesthetized in 2-phenoxyethanol (1:1000) in Ringer's solution prior to imaging and mounted in 1.2% agarose. EB3-GFP and Tau-Bfp2 were imaged with a scan speed kept at the maximum level in single slice mode with […] for a total of 60s to capture microtubule dynamics. h2a:H2A-GFP time-lapse recordings were produced (Zeiss LSM880 AiryScan confocal microscope) with 1 μm sections recorded every 10 min for 12 hr using 800×800 pixels. All other live fish were imaged using 1024×1024 pixels.
EB3-GFP tracking was done in Fiji using the MTrackJ plugin to trace microtubules over time and create Kymographs, measure the velocity, track length, and comet duration. Tracking was also performed using the Spots and Surface tools in Imaris. Settings were initially automatically detected to fit the fluorescence and subsequently modified manually for improved fit. Settings were maintained between treatment groups.
To validate this, microtubule growth dynamics were characterized in basal keratinocytes expressing the microtubule plus-end binding protein, EB3-GFP (courtesy of R. Koester) (Distel et al., 2010, The Journal of cell biology 191: 875-890). […] However, a small proportion of keratinocytes also harbored uniformly labelled EB3-positive microtubules, consistent with previous observations in murine axons (Kleele et al., 2015, Proceedings of the National Academy of Sciences of the United States of America 112: 7501-7506). […] This behavior therefore contrasts the curved conformation of stable dfMTs.

[3] = alone or with EMD534085 20 mg/kg x3

Structure (SMILES) | number of epidermal keratinocytes with dMT [1, 3] | axon branch number (cutaneous sensory axons; EMD534085 alone) [branches/50 μm] | paclitaxel-dependent microtubule growth dynamics ([2]; EMD534085 with 22 μM paclitaxel) | GluTub fluorescence [1] | brittle skin / empty regions in the stratum spinosum [1, 3] | axon branch number (cutaneous sensory axons; 100 nM paclitaxel, alone or with 48 hr EMD534085) [branches/50 μm] | axon branch number (cutaneous sensory axons; 22 μM paclitaxel, alone or with EMD534085) [branches/50 μm] | axon branches in the caudal fin (cutaneous sensory axons; cyba−/− fish) | axon degeneration after stretching (cutaneous sensory axons; paclitaxel-treated and stretched cyba−/− mutants) | axon branches in the caudal fin (cutaneous sensory axons; wildtype) | keratinocytes with uniform EB3 labelling ([2]; 22 μM paclitaxel, 96 hr) [%] | comet duration ([2]; paclitaxel, 3 hr) | growth velocity and track length of microtubules ([2]; paclitaxel, 3 hr) | keratinocytes with uniform EB3 labelling ([2]; paclitaxel, 3 hr) [%] | keratinocytes with uniform EB3 labelling ([2]; paclitaxel, 48 hr) [%] | linearity of microtubules ([2]; paclitaxel, 48 hr and 96 hr)
CN(C)CCNC(=O)NC[C@H]1CC[C@@H]2[C@H](O1)c1cc(C(F)(F)F)ccc1N[C@H]2c1ccccc1 [EMD534085] | The increase was dampened when paclitaxel was injected with EMD534085 | 10.25±0.47 | did not alter the effects induced by paclitaxel alone |  |  |  |  |  |  |  |  |  |  |  |  | 
CC(=O)O[C@H]1C(=O)[C@@]2(C)[C@H]([C@H](OC(=O)c3ccccc3)[C@]3(O)C[C@H](OC(=O)[C@H](O)[C@@H](NC(=O)c4ccccc4)c4ccccc4)C(C)=C1C3(C)C)[C@]1(OC(C)=O)CO[C@@H]1C[C@@H]2O [paclitaxel] | an increase with paclitaxel treatment |  |  | increased GluTub fluorescence | brittle skin in the stratum spinosum | 9.86±0.43 | 7.54±0.56 | no change was found within the cyba−/− group | rescued in paclitaxel-treated and stretched cyba−/− mutants | a decrease in axon branches | 20.13 | not affected | decreased the growth velocity and track length of microtubules | 19.29 | 10.09 | further enhanced the linearity
